Where a name gives a salt, the structure may show the parent alone.
Molecular target: T1, hNET (Homo sapiens, UniProt P23975)
T1 construct: expressed in transfected cells
Test: Norepinephrine (NE) uptake assay in MDCK-Net6 cells stably transfected with human hNET
Assay type: cell-based
Settings: [3H]NE uptake; for inhibition at 1 µM: MDCK-Net6, 1 μM test compound
Protocol: MDCK-Net6 cells, stably transfected with human hNET (Pacholczyk, T., R. D. Blakely, and S. G. Amara, Nature, 1991, 350(6316): p. 350-4) were cultured in growth medium containing high glucose DMEM (Gibco, Cat. No. 11995), 10% FBS (dialyzed, heat-inactivated, US Bio-Technologies, Lot FBD1129HI) and 500 μg/ml G418 (Gibco, Cat. No. 10131). Cells were plated at 300,000/T75 flask and cells were split twice weekly. The JAR cell line (human placental choriocarcinoma) was purchased from ATCC (Cat. No. HTB-144). The cells were cultured in growth medium containing RPMI 1640 (Gibco, Cat. No. 72400), 10% FBS (Irvine, Cat. No. 3000), 1% sodium pyruvate (Gibco, Cat. No. 1136) and 0.25% glucose. Cells were plated at 250,000 cells/T75 flask and split twice weekly. For all assays, cells were plated in Wallac 96-well sterile plates (PerkinElmer, Cat. No. 3983498).
Norepinephrine (NE) Uptake Assay
On day 1, cells were plated at 3,000 cells/well in growth medium and maintained in a cell incubator (37° C., 5% CO2). On day 2, growth medium was replaced with 200 μl of assay buffer (25 mM HEPES; 120 mM NaCl; 5 mM KCl; 2.5 mM CaCl2; 1.2 mM MgSO4; 2 mg/ml glucose (pH 7.4, 37° C.)) containing 0.2 mg/ml ascorbic acid and 10 μM pargyline. Plates containing cells with […] of assay buffer were equilibrated for 10 minutes at 37° C. prior to addition of compounds. A stock solution of desipramine was prepared in DMSO (10 mM) and delivered to triplicate wells containing cells for a final test concentration of 1 μM. Data from these wells were used to define non-specific NE uptake (minimum NE uptake). Test compounds were prepared in DMSO (10 mM) and diluted in assay buffer according to test range (1 to 10,000 nM). Twenty-five microliters of assay buffer (maximum NE uptake) or test compound were added directly to triplicate wells containing cells in 200 μl of assay buffer. The cells in assay buffer with test compounds were incubated for 20 minutes at 37° C. To initiate the NE uptake, [^3H]NE diluted in assay buffer (120 nM final assay concentration) was delivered in 25 μl aliquots to each well and the plates were incubated for 5 minutes (37° C.). The reaction was terminated by decanting the supernatant from the plate. The plates containing cells were washed twice with 200 μl assay buffer (37° C.) to remove free radioligand. The plates were then inverted, left to dry for 2 minutes, then reinverted and air-dried for an additional 10 minutes. The cells were lysed in 25 μl of 0.25 N NaOH solution (4° C.), placed on a shake table and vigorously shaken for 5 minutes. After cell lysis, 75 μl of scintillation cocktail was added to each well and the plates were sealed with film tape. The plates were returned to the shake table and vigorously shaken for a minimum of 10 minutes to ensure adequate partitioning of organic and aqueous solutions. The plates were counted in a Wallac Microbeta counter (PerkinElmer) to collect the raw cpm data.
For each experiment, a data stream of cpm values collected from the Wallac Microbeta counter was downloaded to a Microsoft Excel statistical application program. Calculations of EC50 values were made using the transformed-both-sides logistic dose response program written by Wyeth Biometrics Department. The statistical program uses mean cpm values from wells representing maximum binding or uptake (assay buffer) and mean cpm values from wells representing minimum binding or uptake ((1 μM desipramine (hNET) or 1 μM paroxetine (hSERT)). Estimation of the EC50 value was completed on a log scale and the line was fit between the maximum and minimum binding or uptake values. All graphic data representation was generated by normalizing each data point to a mean percent based on the maximum and minimum binding or uptake values. The EC50 values reported from multiple experiments were calculated by pooling the raw data from each experiment and analyzing the pooled data as one experiment.

T1 sequence (P23975 whole entry): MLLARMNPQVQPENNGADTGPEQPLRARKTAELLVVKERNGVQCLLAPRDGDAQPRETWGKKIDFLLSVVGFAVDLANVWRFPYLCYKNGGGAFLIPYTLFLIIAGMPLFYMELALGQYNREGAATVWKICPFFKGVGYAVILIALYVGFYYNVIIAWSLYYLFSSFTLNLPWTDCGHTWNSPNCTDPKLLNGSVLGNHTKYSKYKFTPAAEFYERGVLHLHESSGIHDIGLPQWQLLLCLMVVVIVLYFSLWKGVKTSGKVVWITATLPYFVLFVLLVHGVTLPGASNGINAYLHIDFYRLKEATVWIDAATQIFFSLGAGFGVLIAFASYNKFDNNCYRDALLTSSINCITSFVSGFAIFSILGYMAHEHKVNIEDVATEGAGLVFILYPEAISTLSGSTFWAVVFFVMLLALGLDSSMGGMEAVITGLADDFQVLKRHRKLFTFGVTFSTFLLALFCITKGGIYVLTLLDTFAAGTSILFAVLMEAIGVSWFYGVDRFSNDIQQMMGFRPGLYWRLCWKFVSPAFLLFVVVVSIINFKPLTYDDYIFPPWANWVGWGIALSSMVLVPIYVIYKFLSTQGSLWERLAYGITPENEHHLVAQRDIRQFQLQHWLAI

| Compound | inhibition at 1 µM | EC50 (test range 1 to 10,000 nM) |
| --- | --- | --- |
| CN(C)C1CCN(CC(c2cccc(Cl)c2)C2(O)CCCCC2)CC1 (stereo not drawn) [Example 36, 1-{1-(3-chlorophenyl)-2-[4-(dimethylamino)piperidin-1-yl]ethyl}cyclohexanol dihydrochloride] | 57% | 130 nM |
| NC1CCN(CC(c2cccc(C(F)(F)F)c2)C2(O)CCCCC2)CC1 (stereo not drawn) [Example 39, 1-{2-(4-aminopiperidin-1-yl)-1-[3-(trifluoromethyl)phenyl]ethyl}cyclohexanol dihydrochloride] | 56% | – |
| NC1CCN(CC(c2cccc3ccccc23)C2(O)CCC2)CC1 (stereo not drawn) [Example 43, 1-[2-(4-aminopiperidin-1-yl)-1-(1-naphthyl)ethyl]cyclobutanol dihydrochloride] | 47% | – |
| CNC1CCN(CC(c2ccc3ccccc3c2)C2(O)CCCCC2)CC1 (stereo not drawn) [Example 49, 1-[2-[4-(methylamino)piperidin-1-yl]-1-(2-naphthyl)ethyl]cyclohexanol dihydrochloride] | 39% | – |
| NC1CCN(CC(c2cccc3ccccc23)C2(O)CCCCC2)CC1 (stereo not drawn) [Example 54, 1-[2-(4-aminopiperidin-1-yl)-1-(1-naphthyl)ethyl]cyclohexanol dihydrochloride] | 39% | – |
| CN[C@@H]1CCCN(CC(c2cccc(OC(F)(F)F)c2)C2(O)CCCCC2)C1 (stereo partly drawn) [Example 186, 1-[2-{(3R)-3-(methylamino)piperidin-1-yl]-1-[3-(trifluoromethoxy)phenyl]ethyl}cyclohexanol dihydrochloride] | 50.4% | – |
| N[C@@H]1CCCN(CC(c2cccc(OC(F)(F)F)c2)C2(O)CCCCC2)C1 (stereo partly drawn) [Example 187, 1-[2-{(3R)-3-aminopiperidin-1-yl]-1-[3-(trifluoromethoxy)phenyl]ethyl}cyclohexanol dihydrochloride] | 62.3% | – |
| CN(C)[C@@H]1CCCN(CC(c2cccc(OC(F)(F)F)c2)C2(O)CCCCC2)C1 (stereo partly drawn) [Example 188, 1-{2-[(3R)-3-(dimethylamino)piperidin-1-yl]-1-[3-(trifluoromethoxy)phenyl]ethyl}cyclohexanol dihydrochloride] | 17.6% | – |
| CN[C@H]1CCCN(CC(c2cccc(OC(F)(F)F)c2)C2(O)CCCCC2)C1 (stereo partly drawn) [Example 189, 1-{2-[(3S)-3-(methylamino)piperidin-1-yl]-1-[3-(trifluoromethoxy)phenyl]ethyl}cyclohexanol dihydrochloride] | 67.9% | – |
| N[C@H]1CCCN(CC(c2cccc(OC(F)(F)F)c2)C2(O)CCCCC2)C1 (stereo partly drawn) [Example 190, 1-{2-[(3S)-3-aminopiperidin-1-yl]-1-[3-(trifluoromethoxy)phenyl]ethyl}cyclohexanol dihydrochloride] | 49.9% | – |
| CN(C)[C@H]1CCCN(CC(c2cccc(OC(F)(F)F)c2)C2(O)CCCCC2)C1 (stereo partly drawn) [Example 191, 1-{2-[(3S)-3-(dimethylamino)piperidin-1-yl]-1-[3-(trifluoromethoxy)phenyl]ethyl}cyclohexanol dihydrochloride] | 12.3% | – |
| CN[C@@H]1CCCN(CC(c2ccc(OCc3ccccc3)c(Cl)c2)C2(O)CCCCC2)C1 (stereo partly drawn) [Example 192, 1-{1-[4-(benzyloxy)-3-chlorophenyl]-2-[(3R)-3-(methylamino)piperidin-1-yl]ethyl}cyclohexanol dihydrochloride] | 88.5% | – |
| N[C@@H]1CCCN(CC(c2ccc(OCc3ccccc3)c(Cl)c2)C2(O)CCCCC2)C1 (stereo partly drawn) [Example 193, 1-{2-[(3R)-3-aminopiperidin-1-yl]-1-[4-(benzyloxy)-3-chlorophenyl]ethyl}cyclohexanol dihydrochloride] | 87.2% | – |
| CN(C)[C@@H]1CCCN(CC(c2ccc(OCc3ccccc3)c(Cl)c2)C2(O)CCCCC2)C1 (stereo partly drawn) [Example 194, 1-{1-[4-(benzyloxy)-3-chlorophenyl]-2-[(3R)-3-(dimethylamino)piperidin-1-yl]ethyl}cyclohexanol dihydrochloride] | 81.1% | – |

Source: US7550485B2, “Substituted N-heterocycle derivatives and methods of their use” (Wyeth, priority 2003, dated 2009)
